Literature values as cited in paper PMC2988205 (Medicinal Chemistry Research, 2009).

System: β3-AR
Settings: read-out: β3 EC50; β3-AR partial agonist; ref Naylor et al., 1998

C[C@H](Cc1ccc(OCC(=O)O)cc1)NC[C@H](O)c1cccc(Cl)c1 [BRL-37344]
EC50: 450 nM
